# Test results reported in publication PMC3172300, “Modulation of Catalytic Activity in Multi-Domain Protein Tyrosine Phosphatases” (PLoS ONE, 2011).
# Where two headings read alike, the source gives them in different places. Square brackets hold non-standard residues; d marks the D form. Ends that are not written are not given here. Peptide text beside a SMILES is read from it. pY = N[C@@H](Cc1ccc(OP(=O)(O)O)cc1)C(=O)O
# What was measured:
# [1] = target: T1, DLAR D1 D2HSS (Drosophila melanogaster, UniProt P16621, C1961S); assay type: biochemical; details: 0.01 µM protein; for Vmax: 25 mM citrate buffer pH 6.0, 100 mM NaCl, 2 mM DTT, 15 min at 25°C, Biomol Green, 650 nm, Michaelis-Menten fit; for Kcat / Kcat/Km / Km: 25 mM citrate pH 6.0, 15 min at 25°C, malachite green
# T1 construct: DLAR 1448-2029; His tag (pET-15b or pET-22b); made in house; host or cells: E. coli BL21(DE3)
# T1 sequence (P16621 1448-2029 C1961S): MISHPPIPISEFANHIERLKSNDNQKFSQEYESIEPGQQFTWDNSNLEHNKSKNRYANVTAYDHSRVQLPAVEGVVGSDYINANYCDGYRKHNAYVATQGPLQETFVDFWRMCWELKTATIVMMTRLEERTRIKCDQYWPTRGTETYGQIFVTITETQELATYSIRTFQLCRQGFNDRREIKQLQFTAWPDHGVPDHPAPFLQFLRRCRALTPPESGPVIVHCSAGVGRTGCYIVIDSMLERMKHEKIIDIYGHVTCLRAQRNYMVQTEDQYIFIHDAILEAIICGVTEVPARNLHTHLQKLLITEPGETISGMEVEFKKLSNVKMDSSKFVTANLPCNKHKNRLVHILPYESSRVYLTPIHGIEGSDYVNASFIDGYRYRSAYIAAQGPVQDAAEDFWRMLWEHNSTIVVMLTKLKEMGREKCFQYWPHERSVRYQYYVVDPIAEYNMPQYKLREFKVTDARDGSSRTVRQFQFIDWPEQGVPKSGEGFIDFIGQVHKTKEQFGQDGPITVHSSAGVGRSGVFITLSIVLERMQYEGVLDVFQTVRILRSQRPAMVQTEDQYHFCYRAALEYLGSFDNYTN
# Excerpt: (§1) Substrates of PTPs characterized thus far include the activation loop segments of various kinases and regulatory loops of other signaling proteins. Suitably designed peptide substrates mimic the physiologically relevant substrates of PTPs. In the present study, peptide substrates were designed for DLAR for which more information was available on its interacting partners. […] The five peptides were chosen based on their distinct charge distributions around the central phosphotyrosine residue. The phosphorylated as well as non-phosphorylated peptides were obtained from GL Bioscience, China. The peptides were >95% pure and were used after a single round of desalting using a Sephadex G25 column (GE Healthcare). The concentration of the peptide samples for biochemical studies was ascertained by UV absorption at 268 nm for the pY residue.
# (§2) Phosphatase activity of the recombinant PTP domains was determined by using para-Nitrophenylphosphate (pNPP), a small molecule generic substrate, as well as phosphotyrosine containing peptides. The pNPP assay was performed as reported previously, with a modification in the buffer composition (25 mM Citrate, Glycine and HEPES (CGH), pH 6.5, 100 mM NaCl and 2 mM DTT). Phosphatase activity with the phosphotyrosine peptides was ascertained by the malachite green reaction as described for PTPs previously. Briefly, the reaction mixture comprised of 0.01 µM protein incubated with increasing concentrations of different peptides in 25 mM citrate buffer pH 6.0, 100 mM NaCl and 2 mM DTT for 15 min at 25°C. The reaction was stopped by the addition of the Biomol Green reagent (Enzo Life Sciences) and the colour developed after 20 min was quantified at 650 nm. For all the assays, kinetic constants for the steady state catalysis were obtained by fitting the reaction curves to the Michaelis-Menten equation using the nonlinear regression module of Sigma plot software (Systat Software, Inc.).
# [2] = target: T2, DLAR D1D2 (Drosophila melanogaster, UniProt P16621); assay: Dephosphorylation of phosphotyrosine peptides (malachite green), DLAR D1D2; assay type: biochemical; details: for Vmax / Kcat / Kcat/Km / Km: 0.01 µM protein; for Vmax: 25 mM citrate buffer pH 6.0, 100 mM NaCl, 2 mM DTT, 15 min at 25°C, Biomol Green, 650 nm, Michaelis-Menten fit; for Kcat / Kcat/Km / Km: 25 mM citrate pH 6.0, 15 min at 25°C, malachite green; for substrate preference: order of peptide substrates, DLAR D1D2
# T2 construct: DLAR 1448-2029; His tag (pET-15b or pET-22b); made in house; host or cells: E. coli BL21(DE3)
# T2 sequence (P16621 1448-2029): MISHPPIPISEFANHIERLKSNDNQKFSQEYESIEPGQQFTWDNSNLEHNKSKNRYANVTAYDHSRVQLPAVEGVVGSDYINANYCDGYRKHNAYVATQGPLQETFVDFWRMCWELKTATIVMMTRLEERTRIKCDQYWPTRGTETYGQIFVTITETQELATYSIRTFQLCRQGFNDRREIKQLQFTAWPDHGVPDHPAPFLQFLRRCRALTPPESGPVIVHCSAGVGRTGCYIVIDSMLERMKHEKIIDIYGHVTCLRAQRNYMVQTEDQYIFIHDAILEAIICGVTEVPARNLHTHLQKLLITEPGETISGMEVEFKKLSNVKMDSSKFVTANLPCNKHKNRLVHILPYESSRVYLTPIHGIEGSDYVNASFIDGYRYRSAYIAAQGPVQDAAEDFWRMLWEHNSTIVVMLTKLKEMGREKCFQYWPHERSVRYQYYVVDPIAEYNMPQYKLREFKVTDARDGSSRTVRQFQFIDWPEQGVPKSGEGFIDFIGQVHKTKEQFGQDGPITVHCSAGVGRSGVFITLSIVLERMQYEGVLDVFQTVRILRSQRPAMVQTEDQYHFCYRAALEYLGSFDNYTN
# Excerpt: as §1, §2
# [3] = target: T3, PTP99A D1 (Drosophila melanogaster, UniProt P35832); assay: Dephosphorylation of phosphotyrosine peptides (malachite green), PTP99A D1; details: for Vmax / Kcat / Kcat/Km / Km: 0.01 µM protein; for Vmax: 25 mM citrate buffer pH 6.0, 100 mM NaCl, 2 mM DTT, 15 min at 25°C, Biomol Green, 650 nm, Michaelis-Menten fit; for Kcat / Kcat/Km / Km: 25 mM citrate pH 6.0, 15 min at 25°C, malachite green; for peptide preference: order of peptide substrates
# T3 sequence (P35832 450-756): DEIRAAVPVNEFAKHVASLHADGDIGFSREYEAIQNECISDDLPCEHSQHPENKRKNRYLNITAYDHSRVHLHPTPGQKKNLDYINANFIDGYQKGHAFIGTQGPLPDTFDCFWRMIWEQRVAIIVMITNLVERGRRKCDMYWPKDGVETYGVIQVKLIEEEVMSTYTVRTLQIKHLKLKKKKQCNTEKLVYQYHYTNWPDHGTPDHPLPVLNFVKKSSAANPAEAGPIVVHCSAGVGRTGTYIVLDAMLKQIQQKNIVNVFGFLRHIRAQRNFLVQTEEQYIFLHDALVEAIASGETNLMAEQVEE
# Excerpt: as §1, §2
# [4] = target: T4, PTP99A D2 (Drosophila melanogaster, UniProt P35832); assay: Peptide preference of the PTP99A D2 domain from ratios of kcat/Km (D1D2 vs D1); assay type: biochemical; details: order of peptide substrates, from comparison of kcat/Km of D1D2 with D1
# T4 sequence (P35832 740-1050): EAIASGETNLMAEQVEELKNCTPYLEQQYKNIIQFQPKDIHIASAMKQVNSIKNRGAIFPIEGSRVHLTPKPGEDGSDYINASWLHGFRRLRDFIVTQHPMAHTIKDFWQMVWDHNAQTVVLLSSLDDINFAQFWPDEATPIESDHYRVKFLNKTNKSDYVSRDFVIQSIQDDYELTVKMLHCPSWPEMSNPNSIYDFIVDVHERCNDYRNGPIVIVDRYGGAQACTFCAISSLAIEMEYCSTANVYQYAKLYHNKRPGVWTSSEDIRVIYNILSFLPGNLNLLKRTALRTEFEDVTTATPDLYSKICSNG
# Experimental: as §2
# (§3) The difference between the most and least preferred substrate in the case of DLAR D1D2 was much less (∼16.0×10^4 sec^−1 M^−1 between Cuticle and Myospheroid peptides) when compared to DLAR D1 alone (∼130.0×10^4 sec^−1 M^−1 between Insulin Receptor and Abelson peptides). […] A more comprehensive study of this activation mechanism is being reported elsewhere.
# [5] = target: T5, DLAR D2 (Drosophila melanogaster, UniProt P16621); assay: Peptide preference of the DLAR D2 domain from ratios of kcat/Km (D1D2 vs D1); assay type: biochemical; details: order of peptide substrates, from comparison of kcat/Km of D1D2 with D1
# T5 construct: DLAR 1728-2029; His tag (pET-15b or pET-22b); made in house; host or cells: E. coli BL21(DE3)
# T5 sequence (P16621 1728-2029): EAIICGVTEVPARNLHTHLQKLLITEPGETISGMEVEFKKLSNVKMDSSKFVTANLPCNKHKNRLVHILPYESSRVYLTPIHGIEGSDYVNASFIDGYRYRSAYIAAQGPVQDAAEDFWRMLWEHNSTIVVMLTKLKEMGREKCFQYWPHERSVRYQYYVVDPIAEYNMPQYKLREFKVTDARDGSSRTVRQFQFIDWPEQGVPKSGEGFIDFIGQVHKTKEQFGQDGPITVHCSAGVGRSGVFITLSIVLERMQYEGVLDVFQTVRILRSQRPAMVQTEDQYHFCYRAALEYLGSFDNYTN
# Experimental: as §2, §3
Compound,Vmax [1] [µmol/min/mg],Kcat [1] [s⁻¹],Kcat/Km [1],Km ([1]; read-out: Km) [µM],Vmax [2] [µmol/min/mg],Kcat [2] [s⁻¹],Kcat/Km [2],Km ([2]; read-out: Km) [µM],substrate preference [2],Vmax [3] [µmol/min/mg],Kcat [3] [s⁻¹],Kcat/Km [3],Km [3] [µM],peptide preference ([3]; PTP99A D1 domain),peptide preference [4],peptide preference [5],Km [1] [µM],Km [2] [µM],"difference between the most and least preferred substrate (kcat/Km) ([3]; PTP99A D1 domain, between Abelson peptide and Insulin Receptor peptides) [M⁻¹ s⁻¹]"
"CDDS[pY]FGNKC (cysteine pairing not given here) [Myospheroid peptide, phosphotyrosine peptide CDDSpYFGNKC from PeptideMine server, obtained from GL Bioscience, >95% pure]",3.11 ± 0.12,3.7 ± 0.15,5.79 ± 0.08 x 10^4 sec^-1M^-1,63.9 ± 7.99,13.86 ± 0.39,16.53 ± 0.47,14.28 ± 0.05 x 10^4 sec^-1M^-1,116 ± 8.69,Cuticle peptide>Insulin receptor peptide>Nervous fingers peptide>Abelson peptide>Myospheroid peptide,2.72 ± 0.13,1.81 ± 0.08,20.40 ± 0.59 x 10^2 sec^-1M^-1,887 ± 102,Abelson peptide>Cuticle peptide>Nervous fingers peptide>Myospheroid peptide>Insulin receptor peptide,Nervous fingers peptide>Abelson peptide>Cuticle peptide>Myospheroid peptide>Insulin receptor peptide,Insulin Receptor peptide>Nervous fingers peptide>Cuticle peptide>Myospheroid peptide>Abelson peptide,,,
CC(C)C[C@H](NC(=O)[C@H](C)NC(=O)CNC(=O)[C@H](Cc1ccc(OP(=O)(O)O)cc1)NC(=O)[C@H](CC(=O)O)NC(=O)[C@@H]1CCCN1C(=O)[C@H](CCC(=O)O)NC(=O)[C@H](C)NC(=O)[C@@H](N)[C@@H](C)O)C(=O)N[C@@H](Cc1ccc(O)cc1)C(=O)N[C@@H](CCC(=O)O)C(=O)O [Cuticle peptide] (H-TAEPD[pY]GALYE-OH),,,,,,,,,,,,,,,,,162 ± 13.8,105 ± 12.4,
"RDDT[pY]TAHAG [Abelson peptide, phosphotyrosine peptide RDDTpYTAHAG from PeptideMine server, obtained from GL Bioscience, >95% pure]",0.6 ± 0.01,0.72 ± 0.01,5.82 ± 0.07 x 10^4 sec^-1M^-1,12.4 ± 1.07,3.39 ± 0.19,4.05 ± 0.22,17.96 ± 0.16 x 10^4 sec^-1M^-1,22.6 ± 4.88,Cuticle peptide>Insulin receptor peptide>Nervous fingers peptide>Abelson peptide>Myospheroid peptide,0.83 ± 0.05,0.55 ± 0.04,45.19 ± 0.29 x 10^2 sec^-1M^-1,122 ± 26.6,Abelson peptide>Cuticle peptide>Nervous fingers peptide>Myospheroid peptide>Insulin receptor peptide,Nervous fingers peptide>Abelson peptide>Cuticle peptide>Myospheroid peptide>Insulin receptor peptide,Insulin Receptor peptide>Nervous fingers peptide>Cuticle peptide>Myospheroid peptide>Abelson peptide,,,~3000
"VIGD[pY]VCRLCK (cysteine pairing not given here) [Nervous Fingers peptide, phosphotyrosine peptide VIGDpYVCRLCK from PeptideMine server, obtained from GL Bioscience, >95% pure]",7.9 ± 0.35,9.42 ± 0.42,7.02 ± 0.07 x 10^4 sec^-1M^-1,134 ± 14.9,12.41 ± 0.68,14.79 ± 0.81,19.59 ± 0.11 x 10^4 sec^-1M^-1,75.5 ± 12.5,Cuticle peptide>Insulin receptor peptide>Nervous fingers peptide>Abelson peptide>Myospheroid peptide,4.42 ± 0.14,2.94 ± 0.10,21.61 ± 0.24 x 10^2 sec^-1M^-1,1360 ± 94.7,Abelson peptide>Cuticle peptide>Nervous fingers peptide>Myospheroid peptide>Insulin receptor peptide,Nervous fingers peptide>Abelson peptide>Cuticle peptide>Myospheroid peptide>Insulin receptor peptide,Insulin Receptor peptide>Nervous fingers peptide>Cuticle peptide>Myospheroid peptide>Abelson peptide,,,
